Laboratory results taken from PMC10254444, “Targeting Myeloperoxidase Activity and Neutrophil ROS Production to Modulate Redox Process: Effect of Ellagic Acid and Analogues” (Molecules, 2023).

Tested on: not given
Test: not given
Conditions: in mice; cited from earlier work

| Compound | oral bioavailability [%] |
| --- | --- |
| O=c1oc2c(O)c(O)cc3c(=O)oc4c(O)c(O)cc1c4c23 [1a, 2,3,7,8-Tetrahydroxy [1]benzopyrano [5,4,3-cde][1]benzopyran-5,10-dione, reference compound] | < 30 |

Biological target: T1, Horseradish peroxidase (HRP) (Armoracia rusticana, UniProt P00433)
T1 construct: purchased Merck (Darmstadt, Germany)
T1 sequence (P00433 31-338 limits assumed): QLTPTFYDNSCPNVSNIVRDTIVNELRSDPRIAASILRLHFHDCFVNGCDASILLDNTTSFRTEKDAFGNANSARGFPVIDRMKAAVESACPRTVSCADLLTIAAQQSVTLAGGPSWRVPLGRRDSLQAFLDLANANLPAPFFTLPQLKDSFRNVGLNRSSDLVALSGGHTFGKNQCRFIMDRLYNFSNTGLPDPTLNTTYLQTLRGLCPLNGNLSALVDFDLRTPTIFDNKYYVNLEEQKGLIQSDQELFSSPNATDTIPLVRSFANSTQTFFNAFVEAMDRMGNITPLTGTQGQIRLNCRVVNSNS
Test: HRP-catalyzed oxidation of L012 (chemiluminescence)
Type: biochemical
Conditions: not given
Description: […] (HRP) reacts with hydrogen peroxide (H2O2), yielding “compound I (HRP^+.-Fe (IV=O))”, which is a reactive intermediate of HRP that is able to oxidize any potential reducing agent. Briefly, 2 μL of compound or reference molecule (ellagic acid) were incubated in phosphate buffer at pH 7.4 (153 μL, 50 mM) containing 5 μL HRP (100 µg/L), 20 μL L0-12 (10^−3 M), and 20 μL H2O2 (1 mM), and the chemiluminescence was immediately measured using a Fluoroskan Ascent 96-plate reader (ThermoLabsystem, Finland) at 37 °C for 30 min [32, 34]. The analysis was conducted in a 96-well microtiter plate. All the assays were performed in triplicate and repeated at least twice (N = 2; n = 6). The relative activity in terms of inhibition percentage of the tested compound or reference (ellagic acid) was compared to a control in the presence of DMSO taken as a solvent. The inhibition percentage was calculated using a similar formula (Equation (1)) as described above.

| Compound | HRP inhibiting activity (in words) | IC50 [µM] |
| --- | --- | --- |
| O=c1oc2c(O)c(O)cc3c(=O)oc4c(O)c(O)cc1c4c23 [1a, 2,3,7,8-Tetrahydroxy [1]benzopyrano [5,4,3-cde][1]benzopyran-5,10-dione, reference compound] | strong inhibiting activity | – |
| O=C(OCCCOC(=O)c1cc(O)c(O)c(O)c1)c1cc(O)cc(O)c1 [compound 3, 3-((3,5-dihydroxybenzoyl)oxy)propyl 3,4,5-trihydroxybenzoate] | – | 3.19 ± 0.07 |
| O=C(OCCCOC(=O)c1cc(O)c(O)c(O)c1)c1ccc(O)c(O)c1 [compound 5, 3-((3,4-dihydroxybenzoyl)oxy)propyl 3,4,5-trihydroxybenzoate] | – | 3.73 ± 0.21 |

Next, values leading:

| HRP inhibiting activity (in words) | IC50 [µM] | Compound |
| --- | --- | --- |
| – | 2.28 ± 0.11 | O=C(OCCCOC(=O)c1cc(O)c(O)c(O)c1)c1cc(O)c(O)c(O)c1 [compound 2] |
| – | 2.84 | O=C(OCCOC(=O)c1cc(O)c(O)c(O)c1)c1cc(O)c(O)c(O)c1 [compound 4] |

Biological target: T2, human myeloperoxidase (MPO) (Homo sapiens, UniProt P05164)
T2 construct: purchased Calbiochem Millipore
T2 sequence (P05164 49-745): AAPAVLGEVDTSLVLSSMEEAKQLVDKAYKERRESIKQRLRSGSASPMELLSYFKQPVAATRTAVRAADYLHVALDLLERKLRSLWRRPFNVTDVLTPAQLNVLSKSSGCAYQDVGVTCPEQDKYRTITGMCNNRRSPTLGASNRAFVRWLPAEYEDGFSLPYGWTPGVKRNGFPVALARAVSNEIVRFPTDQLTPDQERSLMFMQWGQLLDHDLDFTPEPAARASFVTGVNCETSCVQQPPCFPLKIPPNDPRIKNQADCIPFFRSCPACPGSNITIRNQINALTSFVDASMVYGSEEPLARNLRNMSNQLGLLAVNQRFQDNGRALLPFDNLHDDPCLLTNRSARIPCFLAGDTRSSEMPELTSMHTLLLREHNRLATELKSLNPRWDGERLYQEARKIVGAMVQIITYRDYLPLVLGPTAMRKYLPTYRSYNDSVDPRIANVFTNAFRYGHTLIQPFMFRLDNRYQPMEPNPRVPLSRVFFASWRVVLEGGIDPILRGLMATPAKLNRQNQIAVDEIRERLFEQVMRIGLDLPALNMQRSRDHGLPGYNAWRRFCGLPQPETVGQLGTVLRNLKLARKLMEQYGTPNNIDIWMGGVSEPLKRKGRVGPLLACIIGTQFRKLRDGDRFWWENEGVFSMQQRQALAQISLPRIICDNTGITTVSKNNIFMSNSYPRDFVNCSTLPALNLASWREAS
Test: MPO peroxidase activity, classical assay (Amplex Red)
Type: biochemical
Conditions: concentration range 0.01 to 10 µM
Description: Measurement of the peroxidase activity of MPO was performed by a classical enzymatic assay and by SIEFED assay as described by Nyssen et al.. The MPO solution was prepared with purified human MPO in dilution buffer (PBS 20 mM at pH 7.4 with 5 g/L BSA and 0.1% Tween-20). The solutions of EA or analogue, at final concentrations ranging from 10^−8 M to 10^−5 M, were incubated for 10 min with human MPO at a final concentration of 5 mU/mL before further use. The revelation of MPO activity was performed by monitoring the enzyme-catalyzed oxidation of Amplex Red in the presence of H2O2 (10 μM) and nitrite (4.5 mM) in phosphate buffer at pH 7.4.
After incubation, mixtures containing 100 μL of EA/analogue or vehicle (DMSO) and MPO were loaded into wells of microtiter plates (transparent), and the peroxidase activity was measured by adding 10 μL sodium nitrite solution (4.5 mM, final concentration) and 100 μL of the reactional solution containing 10 µM H2O2 and 40 µM Amplex® Red (AR) in phosphate buffer (50 mM) at pH 7.4. The oxidation of AR into the fluorescent resorufin adduct (λexcitation = 544 nm; λemission = 590 nm) was monitored for 30 min at 37 °C with a fluorescent plate reader (Fluoroskan Ascent, Fisher Scientific, Hampton, NH, USA). To eliminate the possibility of the artifact reactions that might arise from MPO activity or its natural substrate (H2O2), the direct reaction of ellagic acid or an analogue with H2O2 was performed in phosphate buffer (PBS) without the addition of human MPO.

| MPO inhibition (classical assay) [%] | Compound |
| --- | --- |
| 98 | O=C(OCCCOC(=O)c1cc(O)c(O)c(O)c1)c1cc(O)cc(O)c1 [compound 3, 3-((3,5-dihydroxybenzoyl)oxy)propyl 3,4,5-trihydroxybenzoate] |

Tested on: not listed separately
Test: DPPH radical scavenging assay
Conditions: not given
Description: The DPPH assay was performed according to the method developed by Brand-Williams et al., though slightly modified. A solution of 1 mM DPPH in absolute methanol was stirred for 40 min. Absorbance of the solution was adjusted to 0.650 ± 0.020 at 517 nm using fresh absolute methanol. For replicates, the DPPH assay was performed using a microplate reader. For this, 2 µL of EA taken as a standard or sample (EA analogue) were mixed with 198 µL of DPPH solution and incubated for 30 min in the dark covered with aluminum foil. When reacting with an antioxidant, the DPPH• radical is converted into DPPH, and its color changes from purple to yellow. The antioxidant effect may be easily evaluated by observing the decrease in visible absorption. The absorbance decrease was monitored at 510 nm for 30 min with a Multiskan Ascent 96-plate reader (ThermoLabsystem, Finland). A control consisted of 2 µL of DMSO in 198 µL of DPPH solution. A similar formula (Equation (1)) was applied to determine the DPPH radical-scavenging activity.

| Compound | IC50 [µM] |
| --- | --- |
| O=c1oc2c(O)c(O)cc3c(=O)oc4c(O)c(O)cc1c4c23 [1a, 2,3,7,8-Tetrahydroxy [1]benzopyrano [5,4,3-cde][1]benzopyran-5,10-dione, reference compound] | 5.64 ± 0.47 |
| O=C(OCCCOC(=O)c1cc(O)c(O)c(O)c1)c1cc(O)cc(O)c1 [compound 3, 3-((3,5-dihydroxybenzoyl)oxy)propyl 3,4,5-trihydroxybenzoate] | 5.78 ± 0.13 |
| O=C(OCCCOC(=O)c1cc(O)c(O)c(O)c1)c1ccc(O)c(O)c1 [compound 5, 3-((3,4-dihydroxybenzoyl)oxy)propyl 3,4,5-trihydroxybenzoate] | 4.24 ± 0.36 |

Results, then the molecule that gave them:

| IC50 [µM] | Compound |
| --- | --- |
| 2.86 ± 0.13 | O=C(OCCCOC(=O)c1cc(O)c(O)c(O)c1)c1cc(O)c(O)c(O)c1 [compound 2] |
| 3.36 ± 0.25 | O=C(OCCOC(=O)c1cc(O)c(O)c(O)c1)c1cc(O)c(O)c(O)c1 [compound 4] |

Tested on: not listed separately
Test: Solubility
Type: physicochemical
Conditions: not given

| solubility (in words) | Compound |
| --- | --- |
| low hydrosolubility | O=c1oc2c(O)c(O)cc3c(=O)oc4c(O)c(O)cc1c4c23 [1a, 2,3,7,8-Tetrahydroxy [1]benzopyrano [5,4,3-cde][1]benzopyran-5,10-dione, reference compound] |

Tested on: not given
Test: not given
Design: method as in PMID 19015354
Conditions: after intraperitoneal injection; cited from earlier work

| Compound | curative activity in vivo (in words) |
| --- | --- |
| O=c1oc2c(O)c(O)cc3c(=O)oc4c(O)c(O)cc1c4c23 [1a, 2,3,7,8-Tetrahydroxy [1]benzopyrano [5,4,3-cde][1]benzopyran-5,10-dione, reference compound] | curative activity in vivo |

Tested on: not listed separately
Test: ABTS radical cation assay
Conditions: not given
Description: The ABTS assay was based on the method described by Re et al.. For the generation of ABTS^•+ radicals, sodium persulfate (2.45 mM) aqueous solution was mixed with ABTS (7 mM) and incubated overnight in the dark to obtain a dark-colored solution. Stock solution of ABTS^•+ was then diluted by adding pure methanol (100%) to obtain an absorbance of 0.70 (±0.02) at 734 nm at 30 °C. To obtain more repetition, the ABTS assay was performed using a microplate reader (ThermoLabsystem, Finland). An aliquot of 2 µL of the tested compound (EA or analogue) was added to 198 µL of ABTS^•+, and the decrease in absorbance was monitored at 740 nm after 30 min [32]. During this reaction, the blue-green ABTS radical cation is converted back into its colorless neutral form in the presence of the potential antioxidant molecule. A control consisted of 2 µL of DMSO in 198 µL of ABTS^•+ solution. The reducing capacity was determined according to the formula:% inhibition = (Acontrol − ASample) × 100/AControl(1)

| Compound | IC50 [µM] |
| --- | --- |
| O=c1oc2c(O)c(O)cc3c(=O)oc4c(O)c(O)cc1c4c23 [1a, 2,3,7,8-Tetrahydroxy [1]benzopyrano [5,4,3-cde][1]benzopyran-5,10-dione, reference compound] | 6.01 ± 0.26 |
| O=C(OCCCOC(=O)c1cc(O)c(O)c(O)c1)c1cc(O)cc(O)c1 [compound 3, 3-((3,5-dihydroxybenzoyl)oxy)propyl 3,4,5-trihydroxybenzoate] | 5.52 ± 0.34 |
| O=C(OCCCOC(=O)c1cc(O)c(O)c(O)c1)c1ccc(O)c(O)c1 [compound 5, 3-((3,4-dihydroxybenzoyl)oxy)propyl 3,4,5-trihydroxybenzoate] | 5.48 ± 0.23 |

Now from value to molecule:

| IC50 [µM] | Compound |
| --- | --- |
| 5.5 ± 0.16 | O=C(OCCCOC(=O)c1cc(O)c(O)c(O)c1)c1cc(O)c(O)c(O)c1 [compound 2] |
| 5.77 ± 0.01 | O=C(OCCOC(=O)c1cc(O)c(O)c(O)c1)c1cc(O)c(O)c(O)c1 [compound 4] |
